Test results: patent US20250270213A1, “PI3Ka INHIBITORS” (Synnovation Therapeutics, Inc., priority 2022, published 2025)

System: T47D (PIK3CA H1047R) cells
Test: pS473 AKT assay with 2.5% FBS, T47D cells
Format: cell-based
Details: Homo sapiens, pSer473 AKT, DMEM with 2.5% FBS, 2 h treatment, read-out: T47D_IC50
Procedure, shortened: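 In-cell chemiluminescent ELISA of AKT Ser473 phosphorylation, using anti-pSer473 primary and HRP secondary antibodies on fixed cells. T47D (PIK3CA H1047R) cells had 2 h of compound treatment in DMEM containing 2.5% FBS; IC50 derived from dose-response.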

| IC50 [µM] | SMILES |
| --- | --- |
| < 1 | Cc1cc(C(C)Nc2ccc(Cl)nc2-c2nnn(C)n2)c2c(c1)c(=O)n(C)c1c2cnn1C1CCN(C)CC1 (centres unmarked) [Compound 161, 9-[1-[[6-chloro-2-(2-methyltetrazol-5-yl)-3-pyridyl]amino]ethyl]-4,7-dimethyl-3-(1-methyl-4-piperidyl)pyrazolo[3,4-c]isoquinolin-5-one] |
| < 1 | CCn1ncc2c3c(C(C)Nc4ccc(Cl)nc4-c4cnn(C)c4C)cc(C)cc3c(=O)n(C)c21 (centres unmarked) [Compound 49, 9-(1-((6-chloro-2-(1,5-dimethyl-1H-pyrazol-4-yl)pyridin-3-yl)amino)ethyl)-3-ethyl-4,7-dimethyl-3,4-dihydro-5H-pyrazolo[3,4-c]isoquinolin-5-one] |
| < 1 | Cc1cc(C(C)Nc2ccc(Cl)nc2-c2ccc3c(c2)CN(C)C3=O)c2c(c1)c(=O)n(C)c1c2cnn1C1CCN(S(C)(=O)=O)CC1 (centres unmarked) [Example 191, 9-(1-((6-chloro-2-(2-methyl-1-oxoisoindolin-5-yl)pyridin-3-yl)amino)ethyl)-4,7-dimethyl-3-(1-(methylsulfonyl)piperidin-4-yl)-3,4-dihydro-5H-pyrazolo[3,4-c]isoquinolin-5-one] |
| < 1 | Cc1cc(C(C)Nc2ccc(Cl)nc2-c2cnn(C)c2)c2c(c1)c(=O)n(C)c1c2cnn1CC1CCN(CC(F)F)CC1 (centres unmarked) [Compound 106, 9-(1-((6-Chloro-2-(1-methyl-1H-pyrazol-4-yl)pyridin-3-yl)amino)ethyl)-3-((1-(2,2-difluoroethyl)piperidin-4-yl)methyl)-4,7-dimethyl-3,4-dihydro-5H-pyrazolo[3,4-c]isoquinolin-5-one] |
| < 1 | CCn1ncc2c3c(C(CO)Nc4ccc(Cl)nc4-c4ccncc4F)cc(C)cc3c(=O)n(C)c21 (centres unmarked) [Compound 76, 9-(1-((6-Chloro-3′-fluoro-[2,4′-bipyridin]-3-yl)amino)-2-hydroxyethyl)-3-ethyl-4,7-dimethyl-3,4-dihydro-5H-pyrazolo[3,4-c]isoquinolin-5-one] |
| < 1 | CC(=O)N1CCC(n2ncc3c4c(C(C)Nc5ccc(Cl)nc5-c5cnn(C)c5)cc(C)cc4c(=O)n(C)c32)CC1 (centres unmarked) [Compound 182, 3-(1-Acetylpiperidin-4-yl)-9-(1-((6-chloro-2-(1-methyl-1H-pyrazol-4-yl)pyridin-3-yl)amino)ethyl)-4,7-dimethyl-3,4-dihydro-5H-pyrazolo[3,4-c]isoquinolin-5-one] |
| < 1 | Cc1cc(C(C)Nc2ccc(Cl)nc2-c2cnn(C)c2)c2c(c1)c(=O)n(C)c1c2cnn1C1CCN(S(C)(=O)=O)CC1 (centres unmarked) [Example 183, 9-[1-[[6-chloro-2-(1-methylpyrazol-4-yl)-3-pyridyl]amino]ethyl]-4,7-dimethyl-3-(1-methylsulfonyl-4-piperidyl)pyrazolo[3,4-c]isoquinolin-5-one] |
| < 1 | Cc1cc(C(C)Nc2ccc(Cl)nc2-c2ccncc2F)c2c(c1)c(=O)n(C)c1c2cnn1C1CCN(C(C)C)C1 (centres unmarked) [Compound 141, 9-(1-((6-chloro-3′-fluoro-[2,4′-bipyridin]-3-yl)amino)ethyl)-3-(1-isopropylpyrrolidin-3-yl)-4,7-dimethyl-3,4-dihydro-5H-pyrazolo[3,4-c]isoquinolin-5-one] |
| < 1 | Cc1cc(C(C)Nc2ccc(Cl)nc2N2CCN3C(=O)OCC3C2)c2c(c1)c(=O)n1c3c2cnn3CCC1 (centres unmarked) [Compound 322, 7-(6-chloro-3-((1-(8-methyl-6-oxo-4,5-dihydro-3H,6H-2,2a,5a-triazaaceanthrylen-10-yl)ethyl)amino)pyridin-2-yl)hexahydro-3H-oxazolo[3,4-a]pyrazin-3-one] |
| < 1 | Cc1cc(C(C)Nc2ccc(Cl)nc2-c2ccc3c(cnn3C)c2)c2c(c1)c(=O)n(C)c1c2cnn1CCO (centres unmarked) [Example 247, 9-(1-((6-chloro-2-(1-methyl-1H-indazol-5-yl)pyridin-3-yl)amino)ethyl)-3-(2-hydroxyethyl)-4,7-dimethyl-3,4-dihydro-5H-pyrazolo[3,4-c]isoquinolin-5-one] |
| < 1 | [2H]C([2H])([2H])n1c(=O)c2cc(C)cc(C(C)Nc3ccc(Cl)nc3-c3nnn(C)n3)c2c2cnn(C3CCN(CCC#N)C3)c21 (centres unmarked) [Compound 153, 3-(3-(9-(1-((6-chloro-2-(2-methyl-2H-tetrazol-5-yl)pyridin-3-yl)amino)ethyl)-7-methyl-4-(methyl-d3)-5-oxo-4,5-dihydro-3H-pyrazolo[3,4-c]isoquinolin-3-yl)pyrrolidin-1-yl)propanenitrile] |
| < 1 | Cc1cc(C(C)Nc2ccc(Cl)nc2-c2ccncc2F)c2c(c1)c(=O)n(C)c1c2cnn1C1CCN(C(=O)N(C)C)C1 (centres unmarked) [Compound 151, 3-(9-(1-((6-chloro-3′-fluoro-[2,4′-bipyridin]-3-yl)amino)ethyl)-4,7-dimethyl-5-oxo-4,5-dihydro-3H-pyrazolo[3,4-c]isoquinolin-3-yl)-N,N-dimethylpyrrolidine-1-carboxamide] |

More lines, now with the values behind:

| SMILES | IC50 [µM] |
| --- | --- |
| CCn1ncc2c3c(C(C)Nc4ccc(Cl)nc4-c4ccc(C(=O)NC)c(F)c4)cc(C)cc3c(=O)n(C)c21 (centres unmarked) [Compound 42, 4-(6-chloro-3-((1-(3-ethyl-4,7-dimethyl-5-oxo-4,5-dihydro-3H-pyrazolo[3,4-c]isoquinolin-9-yl)ethyl)amino)pyridin-2-yl)-2-fluoro-N-methylbenzamide] | < 1 |
| Cc1cc(C(C)Nc2ccc(Cl)nc2-c2noc(=O)[nH]2)c2c(c1)c(=O)n(C)c1c2cnn1C1CCCC1 (centres unmarked) [Compound 61, 3-(6-Chloro-3-((1-(3-cyclopentyl-4,7-dimethyl-5-oxo-4,5-dihydro-3H-pyrazolo[3,4-c]isoquinolin-9-yl)ethyl)amino)pyridin-2-yl)-1,2,4-oxadiazol-5(4H)-one] | < 1 |
| CCn1ncc2c3c(C(C)Nc4ccc(Cl)nc4-c4nncn4C)cc(C)cc3c(=O)n(C)c21 (centres unmarked) [Example 229, 9-(1-((6-chloro-2-(4-methyl-1H-1,2,4-triazol-3-yl)pyridin-3-yl)amino)ethyl)-3-ethyl-4,7-dimethyl-3,4-dihydro-5H-pyrazolo[3,4-c]isoquinolin-5-one] | < 1 |
| Cc1cc(C(C)Nc2ccc(Cl)nc2-c2noc(=O)[nH]2)c2c(c1)c(=O)n(C)c1c2cnn1-c1ccccn1 (centres unmarked) [Example 272, 3-(6-chloro-3-((1-(4,7-dimethyl-5-oxo-3-(pyridin-2-yl)-4,5-dihydro-3H-pyrazolo[3,4-c]isoquinolin-9-yl)ethyl)amino)pyridin-2-yl)-1,2,4-oxadiazol-5(4H)-one] | < 1 |
| [2H]C([2H])([2H])n1c(=O)c2cc(C)cc(C(C)Nc3ccc(Cl)nc3-c3nnn(C)n3)c2c2cnn(C3CCN(C)C3)c21 (centres unmarked) [Compound 139, 9-(1-((6-chloro-2-(2-methyl-2H-tetrazol-5-yl)pyridin-3-yl)amino)ethyl)-7-methyl-4-(methyl-d3)-3-(1-methylpyrrolidin-3-yl)-3,4-dihydro-5H-pyrazolo[3,4-c]isoquinolin-5-one] | < 1 |
| Cc1cc(C(C)Nc2ccc(Cl)nc2-c2ccc(=O)n(C)c2)c2c(c1)c(=O)n(C)c1c2cnn1C1CN(C)C1 (centres unmarked) [Compound 85, 9-(1-((6-chloro-1′-methyl-6′-oxo-1′,6′-dihydro-[2,3′-bipyridin]-3-yl)amino)ethyl)-4,7-dimethyl-3-(1-methylazetidin-3-yl)-3,4-dihydro-5H-pyrazolo[3,4-c]isoquinolin-5-one] | < 1 |
| Cc1ncn2c3c(C(C)Nc4ccccc4C(=O)O)cc(Cl)cc3c(=O)n(C)c12 (centres unmarked) [Compound I-11, 2-((1-(7-Chloro-3,4-dimethyl-5-oxo-4,5-dihydroimidazo[1,5-a]quinazolin-9-yl)ethyl)amino)benzoic acid] | < 1 |
| CCCn1ncc2c3c(C(C)Nc4ccc(Cl)nc4-c4noc(=O)[nH]4)cc(C)cc3c(=O)n(C)c21 (centres unmarked) [Compound 65, 3-(6-Chloro-3-((1-(4,7-dimethyl-5-oxo-3-propyl-4,5-dihydro-3H-pyrazolo[3,4-c]isoquinolin-9-yl)ethyl)amino)pyridin-2-yl)-1,2,4-oxadiazol-5(4H)-one] | < 1 |
| Cc1cc(C(C)Nc2ccc(Cl)nc2-c2cnn3c2CN(C)CC3)c2c(c1)c(=O)n1c3c2cnn3CCC1 (centres unmarked) [Compound 323, 10-(1-((6-Chloro-2-(5-methyl-4,5,6,7-tetrahydropyrazolo[1,5-a]pyrazin-3-yl)pyridin-3-yl)amino)ethyl)-8-methyl-4,5-dihydro-3H,6H-2,2a,5a-triazaaceanthrylen-6-one] | < 1 |
| Cc1cc(C(C)Nc2ccc(C)nc2-c2cnn(CCO)c2)c2c(c1)c(=O)n1c3c2cnn3CCC1 (centres unmarked) [Compound 319, 10-(1-((2-(1-(2-hydroxyethyl)-1H-pyrazol-4-yl)-6-methylpyridin-3-yl)amino)ethyl)-8-methyl-4,5-dihydro-3H,6H-2,2a,5a-triazaaceanthrylen-6-one] | < 1 |
| CC(=O)N1CCN(c2nc(Cl)ccc2NC(C)c2cc(C)cc3c(=O)n4c5c(cnn5CCC4)c23)CC1 (centres unmarked) [Compound 293, 10-(1-((2-(4-acetylpiprerazin-1-yl)-6-chloropyridin-3-yl)amino)ethyl)-8-methyl-4,5-dihydro-3H,6H-2,2a,5a-triazaaceanthrylen-6-one] | < 1 |
| CCNC(=O)N1CCC(Cn2ncc3c4c(C(C)Nc5ccc(Cl)nc5-c5ccncc5F)cc(C)cc4c(=O)n(C)c32)CC1 (centres unmarked) [Compound 109, 4-((9-(1-((6-Chloro-3′-fluoro-[2,4′-bipyridin]-3-yl)amino)ethyl)-4,7-dimethyl-5-oxo-4,5-dihydro-3H-pyrazolo[3,4-c]isoquinolin-3-yl)methyl)-N-ethylpiperidine-1-carboxamide] | < 1 |
| Cc1cc(C(C)Nc2ccc(Cl)nc2-c2cccnc2)c2c(c1)c(=O)n1c3c2cnn3CCC1 (centres unmarked) [Compound 307, 10-(1-((6-chloro-[2,3′-bipyridin]-3-yl)amino)ethyl)-8-methyl-4,5-dihydro-3H,6H-2,2a,5a-triazaaceanthrylen-6-one] | < 1 |
| CCn1c(=O)c2cc(C)cc(C(C)Nc3ccc(Cl)nc3-c3ncn(C)n3)c2c2cnn(C3CCN(S(C)(=O)=O)C3)c21 (centres unmarked) [Compound 148, 9-(1-((6-Chloro-2-(1-methyl-1H-1,2,4-triazol-3-yl)pyridin-3-yl)amino)ethyl)-4-ethyl-7-methyl-3-(1-(methylsulfonyl)pyrrolidin-3-yl)-3,4-dihydro-5H-pyrazolo[3,4-c]isoquinolin-5-one] | < 1 |
